Experimental data from the NIST ThermoML archive (doi:10.1021/acs.jced.5b00549).

Experiment: mn = molality of the nth substance listed, in mol/kg
Details: 100 kPa, Liquid; for viscosity: Capillary tube (Ostwald / Ubbelohde) method; for speed of sound: Frequency=3 MHz, Sing-around technique in a fixed-path interferometer; for mass density: Vibrating tube method

NC(=O)CC[C@H](N)C(=O)O [L-glutamine] + O
Details	mass density [kg/m3]	speed of sound [m/s]	viscosity [mPa·s]
293.15 K, m1 = 0.02	999.262	1484	1.012
293.15 K, m1 = 0.04	1000.32	1485.3	1.017
293.15 K, m1 = 0.06	1001.38	1486.9	1.022
293.15 K, m1 = 0.08	1002.44	1488.4	1.027
293.15 K, m1 = 0.1	1003.5	1490.1	1.031
293.15 K, m1 = 0.12	1004.57	1491.8	1.035
293.15 K, m1 = 0.14	1005.63	1493.5	1.039
293.15 K, m1 = 0.16	1006.69	1495.3	1.043
293.15 K, m1 = 0.18	1007.76	1497.2	1.047
293.15 K, m1 = 0.2	1008.82	1499	1.051
298.15 K, m1 = 0.02	998.094	1498	0.8984
298.15 K, m1 = 0.04	999.147	1499.3	0.9028
298.15 K, m1 = 0.06	1000.2	1500.8	0.9067
298.15 K, m1 = 0.08	1001.26	1502.3	0.9104
298.15 K, m1 = 0.1	1002.32	1503.9	0.9143
298.15 K, m1 = 0.12	1003.37	1505.6	0.9175
298.15 K, m1 = 0.14	1004.43	1507.3	0.9212
298.15 K, m1 = 0.16	1005.49	1509	0.9246
298.15 K, m1 = 0.18	1006.56	1510.7	0.9277
298.15 K, m1 = 0.2	1007.62	1512.6	0.9308
303.15 K, m1 = 0.02	996.679	1510.3	0.8039
303.15 K, m1 = 0.04	997.722	1511.6	0.8076
303.15 K, m1 = 0.06	998.771	1513	0.8109
303.15 K, m1 = 0.08	999.819	1514.5	0.8141
303.15 K, m1 = 0.1	1000.87	1516	0.817
303.15 K, m1 = 0.12	1001.92	1517.7	0.82
303.15 K, m1 = 0.14	1002.97	1519.4	0.8224
303.15 K, m1 = 0.16	1004.02	1521	0.8254
303.15 K, m1 = 0.18	1005.09	1522.7	0.8283
303.15 K, m1 = 0.2	1006.14	1524.5	0.8316
308.15 K, m1 = 0.02	995.051	1520.9	0.7243
308.15 K, m1 = 0.04	996.088	1522.2	0.7275
308.15 K, m1 = 0.06	997.129	1523.6	0.7302
308.15 K, m1 = 0.08	998.171	1525	0.7329
308.15 K, m1 = 0.1	999.218	1526.5	0.7352
308.15 K, m1 = 0.12	1000.26	1528.1	0.7379
308.15 K, m1 = 0.14	1001.31	1529.8	0.7405
308.15 K, m1 = 0.16	1002.36	1531.4	0.7425
308.15 K, m1 = 0.18	1003.41	1533.1	0.7448
308.15 K, m1 = 0.2	1004.48	1534.8	0.7469
313.15 K, m1 = 0.02	993.226	1530	0.6569
313.15 K, m1 = 0.04	994.257	1531.3	0.6595
313.15 K, m1 = 0.06	995.294	1532.6	0.6621
313.15 K, m1 = 0.08	996.332	1534	0.6638
313.15 K, m1 = 0.1	997.372	1535.5	0.666
313.15 K, m1 = 0.12	998.413	1537.1	0.6682
313.15 K, m1 = 0.14	999.457	1538.6	0.6702
313.15 K, m1 = 0.16	1000.5	1540.3	0.6716
313.15 K, m1 = 0.18	1001.56	1542	0.674
313.15 K, m1 = 0.2	1002.6	1543.7	0.6759

N[C@@H](Cc1c[nH]cn1)C(=O)O [L-histidine] + O
Details	mass density [kg/m3]	speed of sound [m/s]	viscosity [mPa·s]
293.15 K, m1 = 0.02	999.369	1484.4	1.013
293.15 K, m1 = 0.04	1000.53	1486.2	1.019
293.15 K, m1 = 0.06	1001.7	1488	1.025
293.15 K, m1 = 0.08	1002.86	1489.7	1.03
293.15 K, m1 = 0.1	1004.03	1491.5	1.035
293.15 K, m1 = 0.12	1005.19	1493.2	1.04
293.15 K, m1 = 0.14	1006.36	1494.9	1.045
293.15 K, m1 = 0.16	1007.53	1496.6	1.049
293.15 K, m1 = 0.18	1008.71	1498.2	1.054
293.15 K, m1 = 0.2	1009.89	1499.9	1.058
298.15 K, m1 = 0.02	998.178	1498.5	0.8996
298.15 K, m1 = 0.04	999.317	1500.2	0.9048
298.15 K, m1 = 0.06	1000.46	1501.9	0.9091
298.15 K, m1 = 0.08	1001.59	1503.7	0.9138
298.15 K, m1 = 0.1	1002.73	1505.3	0.9175
298.15 K, m1 = 0.12	1003.87	1507	0.9222
298.15 K, m1 = 0.14	1005.02	1508.7	0.9259
298.15 K, m1 = 0.16	1006.16	1510.3	0.9293
298.15 K, m1 = 0.18	1007.32	1512	0.9336
298.15 K, m1 = 0.2	1008.47	1513.6	0.9374
303.15 K, m1 = 0.02	996.746	1510.7	0.8051
303.15 K, m1 = 0.04	997.854	1512.4	0.8093
303.15 K, m1 = 0.06	998.962	1514.1	0.813
303.15 K, m1 = 0.08	1000.07	1515.7	0.8165
303.15 K, m1 = 0.1	1001.18	1517.3	0.8198
303.15 K, m1 = 0.12	1002.29	1519	0.8233
303.15 K, m1 = 0.14	1003.39	1520.5	0.8265
303.15 K, m1 = 0.16	1004.5	1522.2	0.8301
303.15 K, m1 = 0.18	1005.61	1523.7	0.8339
303.15 K, m1 = 0.2	1006.72	1525.3	0.8372
308.15 K, m1 = 0.02	995.102	1521.3	0.7253
308.15 K, m1 = 0.04	996.183	1523	0.7289
308.15 K, m1 = 0.06	997.262	1524.6	0.732
308.15 K, m1 = 0.08	998.34	1526.2	0.7348
308.15 K, m1 = 0.1	999.416	1527.8	0.7378
308.15 K, m1 = 0.12	1000.49	1529.4	0.7407
308.15 K, m1 = 0.14	1001.57	1531	0.7435
308.15 K, m1 = 0.16	1002.64	1532.5	0.7466
308.15 K, m1 = 0.18	1003.72	1534.1	0.7492
308.15 K, m1 = 0.2	1004.78	1535.6	0.7524
313.15 K, m1 = 0.02	993.257	1530.4	0.6578
313.15 K, m1 = 0.04	994.314	1532	0.6608
313.15 K, m1 = 0.06	995.368	1533.5	0.6633
313.15 K, m1 = 0.08	996.42	1535.1	0.666
313.15 K, m1 = 0.1	997.47	1536.7	0.6682
313.15 K, m1 = 0.12	998.515	1538.2	0.6709
313.15 K, m1 = 0.14	999.558	1539.7	0.6734
313.15 K, m1 = 0.16	1000.6	1541.2	0.6756
313.15 K, m1 = 0.18	1001.63	1542.7	0.6783
313.15 K, m1 = 0.2	1002.67	1544.2	0.681

CN(C)C(=N)NC(=N)N.Cl [N,N-dimethylimidodicarbonimidic diamide hydrochloride] + O
Details	mass density, m1 = 0.01 [kg/m3]	mass density, m1 = 0.07 [kg/m3]	mass density, m1 = 0.13 [kg/m3]	speed of sound, m1 = 0.01 [m/s]	speed of sound, m1 = 0.07 [m/s]	speed of sound, m1 = 0.13 [m/s]	viscosity, m1 = 0.01 [mPa·s]	viscosity, m1 = 0.07 [mPa·s]	viscosity, m1 = 0.13 [mPa·s]
293.15 K	998.57	1000.83	1003.13	1483.3	1490.2	1496.3	1.01	1.015	1.019
298.15 K	997.402	999.633	1001.9	1497.3	1503.9	1509.7	0.8925	0.899	0.9052
303.15 K	995.993	998.2	1000.45	1509.7	1515.8	1521.3	0.8013	0.8074	0.8126
308.15 K	994.369	996.524	998.785	1520.3	1526	1531.3	0.7245	0.7285	0.7333
313.15 K	992.542	994.71	996.926	1529.4	1534.8	1539.8	0.6566	0.6606	0.6662
